From patent US10308700B2, “GLP-1 derivatives” (Novo Nordisk A/S, priority 2011, dated 2019)

Molecular target: T1, human GLP-1 receptor (Homo sapiens, UniProt P43220)
T1 construct: expressed in transfected cells; host or cells: BHK467-12A (tk-ts13), baby hamster kidney; purified plasma membranes
Experiment: In vitro potency (CRE luciferase; whole cells)
Assay type: cell-based
Description: The purpose of this example is to test the activity, or potency, of the GLP-1 derivatives in vitro. The in vitro potency is the measure of human GLP-1 receptor activation in a whole cell assay.
In vitro potency was determined by measuring the response of human GLP-1 receptor in a reporter gene assay. The assay was performed in a stably transfected BHK cell line that expresses the human GLP-1 receptor and contains the DNA for the cAMP response element (CRE) coupled to a promoter and the gene for firefly luciferase (CRE luciferase). When the human GLP-1 receptor was activated it results in the production of cAMP, which in turn results in the luciferase protein being expressed. When assay incubation was completed the luciferase substrate (luciferin) was added and the enzyme converts luciferin to oxyluciferin and produces bioluminescence. The luminescence was measured and was the readout for the assay.
The cells were cultured at 5% CO2 in cell culture medium. They were aliquoted and stored in liquid nitrogen. Before each assay an aliquot was taken up and washed twice in PBS before being suspended at the desired concentration in the assay specific buffer.
• 1) Cell stocks were thawed in a 37° C. water bath. • 2) Cells were washed three times in PBS. • 3) The cells were counted and adjusted to 5×10^3 cells/50 μl (1×10^5 cells/ml) in assay medium. […]

T1 sequence (P43220 24-463): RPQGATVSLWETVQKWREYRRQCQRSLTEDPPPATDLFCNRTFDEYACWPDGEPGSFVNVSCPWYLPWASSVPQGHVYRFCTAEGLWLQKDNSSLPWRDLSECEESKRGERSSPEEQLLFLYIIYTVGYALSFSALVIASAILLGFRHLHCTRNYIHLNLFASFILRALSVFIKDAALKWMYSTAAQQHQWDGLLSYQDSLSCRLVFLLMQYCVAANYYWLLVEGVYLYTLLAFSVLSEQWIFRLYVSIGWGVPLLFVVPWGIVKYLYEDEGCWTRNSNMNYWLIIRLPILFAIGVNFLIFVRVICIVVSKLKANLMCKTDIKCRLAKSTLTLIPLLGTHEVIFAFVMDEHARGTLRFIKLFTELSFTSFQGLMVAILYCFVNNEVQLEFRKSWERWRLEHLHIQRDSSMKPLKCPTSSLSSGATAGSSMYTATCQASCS

CC[C@H](C)[C@H](NC(=O)[C@H](Cc1ccccc1)NC(=O)[C@H](CCC(=O)O)NC(=O)[C@H](CCCCNC(=O)[C@@H](N)CCCCNC(=O)[C@H](CO)NC(=O)CNC(=O)[C@H](CO)NC(=O)CC[C@H](NC(=O)CCCCCCCCCCCOc1ccc(C(=O)O)cc1)C(=O)O)NC(=O)[C@H](C)NC(=O)[C@H](C)NC(=O)[C@H](CCC(N)=O)NC(=O)CNC(=O)[C@H](CCC(=O)O)NC(=O)[C@H](CC(C)C)NC(=O)[C@H](Cc1ccc(O)cc1)NC(=O)[C@H](CO)NC(=O)[C@H](CO)NC(=O)[C@@H](NC(=O)[C@H](CC(=O)O)NC(=O)[C@H](CO)NC(=O)[C@@H](NC(=O)[C@H](Cc1ccccc1)NC(=O)[C@@H](NC(=O)CNC(=O)[C@H](CCC(=O)O)NC(=O)C(C)(C)NC(=O)[C@@H](N)Cc1c[nH]cn1)[C@@H](C)O)[C@@H](C)O)C(C)C)C(=O)N[C@@H](C)C(=O)N[C@@H](Cc1c[nH]c2ccccc12)C(=O)N[C@@H](CC(C)C)C(=O)N[C@H](C(=O)N[C@@H](CCCNC(=N)N)C(=O)NCC(=O)N[C@@H](CCCNC(=N)N)C(=O)N[C@@H](CCCCNC(=O)[C@@H](N)CCCCNC(=O)[C@H](CO)NC(=O)CNC(=O)[C@H](CO)NC(=O)CC[C@H](NC(=O)CCCCCCCCCCCOc1ccc(C(=O)O)cc1)C(=O)O)C(=O)O)C(C)C [Example 29]
EC50: 5 pM
